Here are results for eight molecules from article PMC7493195 (Journal of medicinal chemistry, 2020).

In data set [1] the target is SRC (Homo sapiens, UniProt P12931). As to the kind of experiment: Z’LYTE / LanthaScreen kinase assay. The class given is biochemical. Background: In TR-FRET formats the signal depends on donor and acceptor labels being close together.
Data set [2] has as its system panel of 468 human kinases. Particulars: 1 μM, 468 kinases, cited from earlier work.
Data set [3] has as its target FGFR1 (Homo sapiens, UniProt P11362). The data set is described as follows: Z’LYTE / LanthaScreen kinase assay. The class given is biochemical.
Data set [4] deals with kinases. The note with it: cited from earlier work.
The subject of data set [5] is MDA-MB-231, H1975 and HCC827 cells. Particulars: 72 h, three cell lines.
Data set [6] relates to MEK1/2 and ERK1/2. The data set is described as follows: Cellular target engagement, TL13–68 competition pulldown, MEK1/2 and ERK1/2. The class given is cell-based. Particulars: H1975 and HCC827 cells, 1 μM, 2 h.
Data set [7] is described as follows: Stability in mouse liver microsomes. The class given is in vitro ADME.
In data set [8] the test system is p-SRC^Y416. The note with it: H1975 and HCC827 cells, 1 μM, 2 h.
The subject of data set [9] is p-SRC^Y416. The note with it: H1975, 1 μM, 2 h, then 0, 2, 4 h postwashout.
The test system of data set [10] is p-SRC^Y416. The note with it: 3 doses of 5 mg/kg IP, 2 and 4 h after last dose.

A value given as a limit tells only on which side of the number the result lay.

Chain of SRC (P12931 whole entry): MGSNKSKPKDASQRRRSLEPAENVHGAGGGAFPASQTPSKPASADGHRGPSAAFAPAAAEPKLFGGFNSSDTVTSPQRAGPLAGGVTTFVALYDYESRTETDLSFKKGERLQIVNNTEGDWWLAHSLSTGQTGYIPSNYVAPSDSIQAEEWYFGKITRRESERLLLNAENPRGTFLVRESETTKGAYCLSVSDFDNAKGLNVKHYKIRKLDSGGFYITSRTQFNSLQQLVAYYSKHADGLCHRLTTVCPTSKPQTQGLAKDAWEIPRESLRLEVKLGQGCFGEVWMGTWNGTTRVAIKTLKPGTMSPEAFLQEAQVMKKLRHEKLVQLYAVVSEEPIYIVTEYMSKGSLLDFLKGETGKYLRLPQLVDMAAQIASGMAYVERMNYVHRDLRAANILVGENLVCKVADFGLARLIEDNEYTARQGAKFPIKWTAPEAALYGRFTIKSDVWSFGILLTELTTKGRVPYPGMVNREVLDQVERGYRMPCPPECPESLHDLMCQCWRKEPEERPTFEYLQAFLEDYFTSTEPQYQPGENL
Chain of FGFR1 (P11362 22-822): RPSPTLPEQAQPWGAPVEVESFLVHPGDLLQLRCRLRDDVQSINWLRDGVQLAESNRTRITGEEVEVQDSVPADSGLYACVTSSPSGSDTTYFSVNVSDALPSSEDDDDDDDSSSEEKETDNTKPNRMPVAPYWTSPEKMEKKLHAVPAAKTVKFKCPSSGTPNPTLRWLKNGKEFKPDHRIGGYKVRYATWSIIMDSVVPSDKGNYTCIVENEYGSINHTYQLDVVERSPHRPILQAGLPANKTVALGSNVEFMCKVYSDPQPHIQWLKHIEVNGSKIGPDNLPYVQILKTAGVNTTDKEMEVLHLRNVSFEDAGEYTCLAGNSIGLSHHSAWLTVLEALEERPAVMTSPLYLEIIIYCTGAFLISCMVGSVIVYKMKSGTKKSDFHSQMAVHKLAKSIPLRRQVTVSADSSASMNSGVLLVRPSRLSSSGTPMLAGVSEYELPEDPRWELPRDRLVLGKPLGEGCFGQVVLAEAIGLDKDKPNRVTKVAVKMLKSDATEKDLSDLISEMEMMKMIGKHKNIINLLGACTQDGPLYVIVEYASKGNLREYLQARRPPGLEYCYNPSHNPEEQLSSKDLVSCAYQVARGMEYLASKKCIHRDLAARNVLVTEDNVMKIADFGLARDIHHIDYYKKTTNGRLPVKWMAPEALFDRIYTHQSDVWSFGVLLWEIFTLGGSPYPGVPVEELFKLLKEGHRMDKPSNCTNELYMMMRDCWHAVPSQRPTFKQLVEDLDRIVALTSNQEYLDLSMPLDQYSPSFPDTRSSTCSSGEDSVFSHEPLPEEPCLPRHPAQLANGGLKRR

Consider `C=CC(=O)Nc1ccccc1Nc1nc(Nc2ccc(N3CCC(N4CCN(C)CC4)CC3)cc2)ncc1C(=O)Nc1c(C)cccc1Cl` [Compound 17c, 4-((2-Acrylamidophenyl)amino)-N-(2-chloro-6-methylphenyl)-2-((4-(4-(4-methylpiperazin-1-yl)piperidin-1-yl)phenyl)amino)-pyrimidine-5-carboxamide], for which, in [1], the “activity on SRC, in words” value is recorded as “loss of binding”. Turning to `C=CC(=O)Nc1ccccc1Nc1nc(Nc2ccc(N3CCN(C)CC3)cc2)ncc1Cl` [SM1–71], the “selectivity score S(35)” value in data set [2] (specified percent inhibition 35%) was 0.43. Besides, in data set [2], the “number of kinases hit” value was “more than 100 kinases”. For the molecule `C=CC(=O)Nc1ccccc1Nc1nc(Nc2ccc(N3CCN(C)CC3)cc2)ncc1C(=O)Nc1ccc(Oc2ccccc2)cc1` [Compound 15i, 4-((2-Acrylamidophenyl)amino)-2-((4-(4-methylpiperazin-1-yl)-phenyl)amino)-N-(4-phenoxyphenyl)pyrimidine-5-carboxamide], the “activity on SRC, in words” value in [1] is “complete loss of activity”. For the same molecule, the “activity on FGFR1, in words” value in [3] is listed as “complete loss of activity”. In the case of `Cc1nc(Nc2ncc(C(=O)Nc3c(C)cccc3Cl)s2)cc(N2CCN(CCO)CC2)n1` [dasatinib], the “number of kinases inhibited” value in data set [4] is greater than 30 kinases. Turning to `C=CC(=O)Nc1ccccc1Nc1nc(Nc2ccc(N3CCN(C)CC3)cc2)ncc1OCc1ccc(Oc2ccccc2)cc1` [Compound 10c, N-(2-((2-((4-(4-Methylpiperazin-1-yl)phenyl)amino)-5-((4-phenoxybenzyl)oxy)pyrimidin-4-yl)amino)phenyl)acrylamide], the “loss of activity on FGFR1 compared to SM1–71” value in [3] came out at 20 fold. For `COc1cc(Nc2c(C#N)cnc3cc(OCCCN4CCN(C)CC4)c(OC)cc23)c(Cl)cc1Cl` [bosutinib], in data set [4], the “number of kinases inhibited” value is listed as greater than 45 kinases.

With `CN1CCN(CCOc2cc(OC3CCOCC3)c3c(Nc4c(Cl)ccc5c4OCO5)ncnc3c2)CC1` [AZD0530], the “growth inhibitory potency, in words” value in [5] was “weaker potency compared to 15a”. In the case of `C=CC(=O)Nc1ccccc1Nc1nc(Nc2ccc(N3CCN(C)CC3)cc2)ncc1C(=O)Nc1c(C)cccc1Cl` [Compound 15a, 4-((2-Acrylamidophenyl)amino)-N-(2-chloro-6-methylphenyl)-2-((4-(4-methylpiperazin-1-yl)phenyl)amino)pyrimidine-5-carboxamide], the “cellular engagement of MEK1/2 or ERK1/2” value in [6] was “did not engage”. Moreover, the half-life (as a rule, the time in which the quantity being followed falls by half) in data set [7] was 5.2 min. Also, the “inhibition of p-SRC^Y416 signaling” value in data set [8] is “inhibited p-SRC^Y416 signaling”. The “inhibition of p-SRC^Y416 signaling after washout” value in data set [9] was “potent and sustained inhibition of p-SRC^Y416 signaling up to 4 h postwashout”. The “inhibition of p-SRC^Y416 in spleen” value in data set [10] was “inhibition of p-SRC^Y416 at 2 and 4 h postdosing”.
